Sander's compilation of Henry's law constants (doi:10.1016/s0378-4347(00)82845-5)

Test: Henry solubility constant Hcp at 310 K (mol/(m3 Pa))
Conditions: reference: Guitart et al. (1989)

Henry solubility constant Hcp at 310 K | Structure (SMILES)
0.00028 | FC(F)(F)C(Cl)Br (configuration not stated) [1-bromo-1-chloro-2,2,2-trifluoroethane]
4.6e-06 | CC(C)CC(C)(C)C [2,2,4-trimethylpentane]
0.002 | c1ccccc1 [benzene]
8e-06 | CCCC [butane]
3.4e-05 | C1CCCCC1 [cyclohexane]
7.8e-05 | C1CC1 [cyclopropane]
0.0034 | ClCCl [dichloromethane]
0.0028 | CC(C)OC(C)C [diisopropyl ether]
0.043 | CCOC(C)=O [ethyl ethanoate]
6e-06 | CCCCCCC [heptane]
6.7e-06 | CCCCCC [hexane]
1.4e-06 | FS(F)(F)(F)(F)F [sulfur hexafluoride]

Structure (SMILES) | Henry solubility constant Hcp at 310 K
CC(Cl)(Cl)Cl [1,1,1-trichloroethane] | 0.00032
FC(F)OC(F)(F)C(F)Cl (configuration not stated) [2-chloro-1,1,2-trifluoroethyl difluoromethyl ether] | 0.00027
CCOCC [diethyl ether] | 0.0063
CC(C)=O [propanone] | 0.12
ClC=C(Cl)Cl [trichloroethene] | 0.00055
